Assay results: patent publication US12194048B2, “Use of pyrrolopyridine derivatives for preventing or treating inflammatory diseases” (VORONOI CO., LTD., priority 2020, dated 2025)

How the values were obtained:
[1] = tested on: peripheral blood mononuclear cells of inflammatory bowel disease patients; experiment: Inflammatory cytokine expression in PBMC of inflammatory bowel disease patients; format: cell-based, human; details: treated 24 hours; FIG. 4
[2] = tested on: naive T cells in the mouse spleen; experiment: Regulatory T cell and Th17 cell differentiation; format: cell-based; details: FIG. 2
Description: The experiment was conducted using Harmine as a control.

[3] = Metabolic stability (MS) evaluation; format: in vitro ADME
CYP 2C9 = CYP 2C9 (Homo sapiens, UniProt P11712); experiment: CYP inhibition assay (luminescence); format: in vitro ADME
CYP 2C9, sequence (P11712 whole entry): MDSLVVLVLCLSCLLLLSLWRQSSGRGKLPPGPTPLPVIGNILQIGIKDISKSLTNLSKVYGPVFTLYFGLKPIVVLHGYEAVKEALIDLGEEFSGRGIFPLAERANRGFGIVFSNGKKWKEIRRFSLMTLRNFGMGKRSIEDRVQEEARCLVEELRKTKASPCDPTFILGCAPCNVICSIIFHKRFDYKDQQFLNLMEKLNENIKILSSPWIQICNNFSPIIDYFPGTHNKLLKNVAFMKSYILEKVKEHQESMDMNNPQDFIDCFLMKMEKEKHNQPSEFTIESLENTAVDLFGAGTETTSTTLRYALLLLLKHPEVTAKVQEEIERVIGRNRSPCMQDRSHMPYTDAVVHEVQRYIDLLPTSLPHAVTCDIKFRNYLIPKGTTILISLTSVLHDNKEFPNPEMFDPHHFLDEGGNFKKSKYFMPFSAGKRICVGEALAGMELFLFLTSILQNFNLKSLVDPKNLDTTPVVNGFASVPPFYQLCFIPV
From the text: (§1) DDI (Drug Interaction) can be observed in a CYP inhibition assay. A luminescence assay was used to measure and evaluate inhibition activity against 1A2, 2C9, 2C19, 2D6 and 3A4, which are important Phase 1 drug metabolism CYP450 enzymes involved in drug metabolism.

CYP 1A2 = CYP 1A2 (Homo sapiens, UniProt P05177); experiment: CYP inhibition assay (luminescence); format: in vitro ADME
CYP 1A2, sequence (P05177 whole entry): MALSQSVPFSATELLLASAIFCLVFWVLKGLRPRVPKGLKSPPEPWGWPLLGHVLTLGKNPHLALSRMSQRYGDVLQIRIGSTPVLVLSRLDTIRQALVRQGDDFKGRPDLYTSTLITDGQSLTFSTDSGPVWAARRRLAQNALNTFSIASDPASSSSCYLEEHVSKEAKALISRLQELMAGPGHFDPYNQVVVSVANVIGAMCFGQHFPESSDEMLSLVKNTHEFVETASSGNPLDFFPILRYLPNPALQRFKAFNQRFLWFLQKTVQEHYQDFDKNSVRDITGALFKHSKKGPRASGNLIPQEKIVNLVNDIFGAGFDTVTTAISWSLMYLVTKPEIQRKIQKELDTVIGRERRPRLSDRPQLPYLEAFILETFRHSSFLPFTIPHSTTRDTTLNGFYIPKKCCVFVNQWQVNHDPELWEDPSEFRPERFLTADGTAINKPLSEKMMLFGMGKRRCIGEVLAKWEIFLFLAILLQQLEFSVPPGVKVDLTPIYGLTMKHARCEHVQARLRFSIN
From the text: as §1

CYP 2C19 = CYP 2C19 (Homo sapiens, UniProt P33261); experiment: CYP inhibition assay (luminescence); format: in vitro ADME
CYP 2C19, sequence (P33261 whole entry): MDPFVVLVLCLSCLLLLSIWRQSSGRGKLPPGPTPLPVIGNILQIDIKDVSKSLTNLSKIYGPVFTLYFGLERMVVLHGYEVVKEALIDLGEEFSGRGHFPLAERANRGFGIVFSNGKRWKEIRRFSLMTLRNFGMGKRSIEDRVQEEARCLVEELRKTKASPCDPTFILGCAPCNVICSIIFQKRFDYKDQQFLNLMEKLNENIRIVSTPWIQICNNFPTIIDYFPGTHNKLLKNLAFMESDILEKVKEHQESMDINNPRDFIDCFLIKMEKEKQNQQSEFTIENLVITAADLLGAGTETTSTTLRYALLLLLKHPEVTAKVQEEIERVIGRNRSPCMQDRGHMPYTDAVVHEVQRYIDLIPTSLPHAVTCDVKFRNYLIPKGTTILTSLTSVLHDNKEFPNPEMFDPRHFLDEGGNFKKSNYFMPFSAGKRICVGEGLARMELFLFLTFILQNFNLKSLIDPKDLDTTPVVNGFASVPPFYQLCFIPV
From the text: as §1

CYP 3A4 = CYP 3A4 (Homo sapiens, UniProt P08684); experiment: CYP inhibition assay (luminescence); format: in vitro ADME
CYP 3A4, sequence (P08684 whole entry): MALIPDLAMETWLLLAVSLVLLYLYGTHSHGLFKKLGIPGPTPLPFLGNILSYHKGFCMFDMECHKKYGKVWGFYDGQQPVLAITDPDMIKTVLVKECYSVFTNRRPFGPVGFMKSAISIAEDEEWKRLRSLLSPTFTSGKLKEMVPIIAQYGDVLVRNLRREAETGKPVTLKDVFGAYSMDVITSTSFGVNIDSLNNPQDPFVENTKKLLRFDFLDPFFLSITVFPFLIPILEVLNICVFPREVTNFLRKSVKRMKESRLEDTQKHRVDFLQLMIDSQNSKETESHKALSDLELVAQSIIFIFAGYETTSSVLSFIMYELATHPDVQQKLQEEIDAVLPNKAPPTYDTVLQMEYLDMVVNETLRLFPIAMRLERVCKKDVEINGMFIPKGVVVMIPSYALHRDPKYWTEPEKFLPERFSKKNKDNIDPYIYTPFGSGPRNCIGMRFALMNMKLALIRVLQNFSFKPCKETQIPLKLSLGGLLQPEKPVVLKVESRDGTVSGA
From the text: as §1

CYP 2D6 = CYP 2D6 (Homo sapiens, UniProt P10635); experiment: CYP inhibition assay (luminescence); format: in vitro ADME
CYP 2D6, sequence (P10635 whole entry): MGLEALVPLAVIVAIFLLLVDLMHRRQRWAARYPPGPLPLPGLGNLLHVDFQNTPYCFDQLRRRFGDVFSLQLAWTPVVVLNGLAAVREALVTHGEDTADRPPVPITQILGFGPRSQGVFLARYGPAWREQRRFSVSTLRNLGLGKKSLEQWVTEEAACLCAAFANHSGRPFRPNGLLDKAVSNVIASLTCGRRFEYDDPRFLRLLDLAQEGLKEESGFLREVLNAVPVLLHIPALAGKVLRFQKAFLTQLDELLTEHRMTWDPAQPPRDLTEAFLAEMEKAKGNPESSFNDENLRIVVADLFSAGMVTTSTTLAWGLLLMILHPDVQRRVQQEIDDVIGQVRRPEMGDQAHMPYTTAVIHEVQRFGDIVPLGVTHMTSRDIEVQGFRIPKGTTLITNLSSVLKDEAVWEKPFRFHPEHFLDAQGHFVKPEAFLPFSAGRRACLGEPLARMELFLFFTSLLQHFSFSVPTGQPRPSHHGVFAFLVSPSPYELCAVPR
From the text: as §1

[4] = tested on: IMQ-induced psoriasis-like skin inflammation model; experiment: Topical treatment in imiquimod (IMQ)-induced psoriasis-like skin inflammation; format: in vivo, BALB/c mice
Description: Dexamethasone (0.15%), the reference compound, was applied topically at 20 μL/mouse on the right ear once daily (QD) during the same study period.
Fifteen (15) mg imiquimod (IMQ) cream (5%) (Aldara; 3M Pharmaceuticals) was topically administered once daily (QD) on the right ear one hour after treatment from Day 1 to Day 9 for 9 consecutive days, translating to a daily dose of 0.75 mg of the active compound.
Ear swelling was measured on Day 0 and thereafter 30 min before dosing on Days 2, 4, 6 and 8. On Day 10, ear swelling was measured 24 hours after the last dosing.

[5] = tested on: DSS-induced inflammatory bowel disease mouse model; experiment: DSS-induced inflammatory bowel disease mouse model; format: in vivo, male C57BL/6 mice; details: 20 mg/kg orally twice a day
Description: The animals used for the present experiment was male C57BL/6 mice (aged 6 to 8 weeks) weighting 20 to 24 g, purchased from Charles River Laboratories. All the mice except the normal control were made to drink 3% DSS water for 5 days to induce enteritis.
The comparative compound cyclosporine A was dissolved in 0.5% methylcellulose solvent and orally administered once a day at a prescribed concentration (20 mg/kg), and Tofacitinib was dissolved in 0.5% methylcellulose solvent and orally administered twice a day at a prescribed concentration (10 mg/kg).
Changes in body weight, occult bleeding in stool, and stool consistently were examined daily during the experiment to assess the degree of disease activity, and upon termination of the experiment (day 12), bowel tissue was collected in order to measure bowel tissue weight and length, perform histological analysis using H&E dyeing and PAS dyeing, and analyze expression of inflammatory cytokines in the bowel tissue.
To assess disease activity, changes in weight and other criteria disclosed in Table 4 below were used for scoring; scores were aggregated.

THP-1 cells = experiment: Pro-inflammatory cytokine expression in LPS-stimulated THP-1 cells; format: cell-based; details: pre-treated 1 hour, then LPS 0.5 μg/ml 24 hours; FIG. 1a
[6] = Plasma stability evaluation; format: in vitro ADME; details: LC-MS/MS
Description: Hydrolysis in plasma is a factor which, together with metabolic reactions, impacts fast in-vivo decomposition of a drug and short half-life thereof; plasma stability is a test which assesses these. The compound at a certain concentration was added to plasma and reacted for a certain period, then collected, and LC-MS/MS was used to measure the percentage of compound remaining relative to the amount prior to the reaction.

[7] = tested on: IMQ-induced psoriasis-like skin inflammation model; experiment: Oral treatment in imiquimod (IMQ)-induced psoriasis-like skin inflammation; format: in vivo, BALB/c mice
Description: The positive control, methotrexate at 2 mg/kg and tofacitinib at 5 mg/kg were administered by oral gavage twice (BID) daily during the same study period.
Fifteen (15) mg Imiquimod (IMQ) cream (5%) (Aldara; 3M Pharmaceuticals) was topically (TOP) administered once daily (QD) on the right ear one hour after treatment from Day 1 to Day 9 for 9 consecutive days, translating to a daily dose of 0.75 mg of the active compound. Ear swelling was measured on Day 0 and thereafter 30 min before dosing on Days 2, 4, 6 and 8. On Day 10, ear swelling was measured 24 hours after the last dosing.

Caco-2 permeability = format: in vitro ADME; details: human
From the text: Caco-2 permeability observes the cell membrane permeability of a drug, and can be considered an index associated with drug absorption and excretion.

MS (1 μM) (% remaining during 30 min) Human [3]: 39%
CYP (10 μM) (% of control activity 2C9) (CYP 2C9): 74%
CYP (10 μM) (% of control activity 1A2) (CYP 1A2): 86%
CYP (10 μM) (% of control activity 2C19) (CYP 2C19): 84%
CYP 3A4 enzyme inhibition activity (in words) (CYP 3A4): almost no enzyme inhibition activity
CYP (10 μM) (% of control activity 3A4) (CYP 3A4; 10 μM): 72%
CYP (10 μM) (% of control activity 2D6) (CYP 2D6): 92%
Plasma stability (% remaining, 30 min) ([6]; 30 min): 100%
Plasma stability (% remaining, 120 min) ([6]; 120 min): 97.2%
Papp (Caco-2 permeability): 2.01 nm/s
Compound: CCNc1cc(Nc2ccc(C(=O)N3CCC(N4CCOCC4)CC3)cc2OC)nc2[nH]cc(C(F)(F)F)c12 [Compound 1, (4-((4-(ethylamino)-3-(trifluoromethyl)-1H-pyrrolo[2,3-b]pyridine-6-yl)amino)-3-methoxyphenyl)(4-morpholinopiperidine-1-yl)methanone]
expression of IL-6 [1]: effectively inhibiting
expression of IL-17A [1]: effectively inhibiting
expression of TNF-α [1]: effectively inhibiting
differentiation of Th17 cells ([2]; Th17 differentiation conditions): decreased
differentiation of regulatory T cells (Treg) ([2]; regulatory T cell differentiation conditions): increased
IMQ-induced ear swelling ([4]; 0.3, 1% and 3% topical 20 μL/mouse QD x 9 days, Day 6 to Day 10, dose-dependent, vs no treatment and vehicle): moderate to significant (p<0.05) inhibition
severity of skin lesions (histopathological examination of the ear skin) ([4]; 3% topical, vs no treatment group and vehicle group): attenuated significantly
protective effects in IMQ-induced psoriasis-like inflammation (ear swelling, ear weight, histopathological result) ([4]; 3%, high dose, 20 μL/mouse QD×9 days topically): significant (p<0.05) protective effects
disease activity ([5]; FIG. 7): reduced to the level of the control administered cyclosporine A
expression of IL-6 in bowel tissue ([5]; FIG. 8): decreased
expression of IL-17A in bowel tissue ([5]; FIG. 8): decreased
expression of TNR-α in bowel tissue ([5]; FIG. 8): decreased
loss of goblet cells ([5]; histological analysis, FIG. 8): reduced
body weight reduction ([5]; vs control not treated, FIG. 7): less weight reduction
expression of IL-6 (THP-1 cells): effectively inhibited
expression of TNF-α (THP-1 cells): effectively inhibited
protective effects on IMQ-induced psoriasis-like inflammation (ear swelling) ([7]; 45 and 60 mg/kg PO BID×9 days): significantly (p<0.05) protective effects
IMQ-induced ear swelling ([7]; 45 and 60 mg/kg oral gavage BID 9 days, Day 8 to Day 10, vs vehicle group): statistically (p<0.05) significant inhibition
